In paper PMC9968170 (Pharmaceutics, 2023):
Like-named read-outs stand apart in the source and are kept apart here. One block for each molecule: values may come before it.

Key:
[1] = FUR alone 5 mg/kg PO
[2] = cited from earlier work
[3] = PK of NOV (oral, given with FUR) in rats; assay type: in vivo, Sprague-Dawley rats; details: NOV 20 mg/kg PO; for CL renal: Sprague-Dawley, rat, urine and whole blood, read-out: NOV renal clearance (CLR) (converted)
Procedure: The rats were housed 2–3 per cage in a specific-pathogen-free facility with controlled light (14/10 h, light/dark cycle), temperature (20–26 °C), and humidity (50 ± 20%).
For groups 2 and 4, the rats were fasted between 4 h prior to dosing and 2 h post-dose with free access to water. […] The blood samples (25 µL) were collected in duplicate in 1 mL tubes and mixed with an equal volume of water containing heparin (30 IU/mL containing 0.05% formic acid) at pre-dose, 0.25, 0.5, 0.75, 1, 1.5, 2, 4, and 6 h.
Next, 300 µL of acetonitrile containing FUR-d5 (as internal standard; 300 ng/mL) was added to 50 µL of the calibration curve standards, QC samples, and rat blood samples to precipitate blood proteins. […] One μL of the sample was injected and LC separation was achieved using an Acquity UPLC HSS T3 column (100Å, 1.8 µm, 1 mm × 100 mm) and mobile phase (A: water with 0.1% formic acid and B: acetonitrile with 0.1% formic acid; 50 μL/min flow) with a gradient program: 0.0–1.5 min (5% B), 1.5–3.5 min (5–70% B), 3.5–5 min (70–90% B), 5–7.5 min (90% B), and 7.5–7.6 min (90–5% B), followed by 5% B until 8.5 min. […] The cone voltage (CV) was 25 V.
Similarly, 25 µL of urine sample (diluted 10-fold with water containing 0.1% formic acid) was mixed with 75 µL of acetonitrile containing 100 ng/mL of FUR-d5.
(1) CLR=Ae 0−6 h/AUC0−6 h where, Ae is the cumulative amount of drug excreted unchanged in the urine between 0 to 6 h.

[4] = tested on: human Bcrp; details: cited from earlier work
[5] = tested on: OAT3; design: method as in PMID 16489126, PMID 26700956, PMID 19282394; details: human OAT3; cited from earlier work
[6] = tested on: OAT1; design: method as in PMID 16489126, PMID 26700956, PMID 19282394; details: human OAT1; cited from earlier work
[7] = tested on: Bcrp; design: method as in PMID 31868552; details: rats, cited from earlier work

FUR CLR, male compared to female rats [1]: 2 fold
Structure (SMILES): NS(=O)(=O)c1cc(C(=O)O)c(NCc2ccco2)cc1Cl [FUR, Furosemide]
Fraction excreted unchanged in urine, fe [2]: ≈ 65%

AUC and Cmax of NOV, male vs female rats [3]: comparable
Food-effect on the PK of NOV ([3]; fed vs fasted state): no food-effect
Structure (SMILES): CO[C@@H]1[C@@H](OC(N)=O)[C@@H](O)[C@H](Oc2ccc3c(O)c(NC(=O)c4ccc(O)c(CC=C(C)C)c4)c(=O)oc3c2C)OC1(C)C [NOV, Novobiocin]

Structure (SMILES): O=C(O)c1cc(/N=N/c2ccc(S(=O)(=O)Nc3ccccn3)cc2)ccc1O [sulfasalazine]
Effect of NOV on systemic clearance of sulfasalazine ([7]; intravenous dosing): not influenced
Increase of sulfasalazine AUC with NOV coadministration ([7]; oral administration): 3.2 fold
Increase of sulfasalazine Cmax with NOV coadministration ([7]; oral administration): 5.9 fold
